Measured values from ChEMBL document CHEMBL1201862, “PubChem BioAssay data set” (2004).
Structures can show the parent of a compound that is named as a salt. Active and inactive are the calls of the source.

Experiments:
[1] = miR-122 activators in hepatoma reporter cells, dose response, cell-based, Huh7 psiCHECK-miR122, Renilla luciferase, cherry-picked (AID 651956); type: functional;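 further: huh7 hepatoma cells stably carrying a psiCHECK-2 miR-122 sensor plasmid; renilla luciferase signal reporting endogenous miR-122 activity after 48 h compound exposure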
[2] = molecular target: Hepatocyte nuclear factor 4-alpha (Homo sapiens, UniProt P41235); type: functional, cell-based;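 further: biochemical luminescence-based dose-response counterscreen measuring inhibition of HNF4 dimerization, run alongside a screen for blockers of ABHD5–perilipin-5 interaction; split luciferase complementation of HNF4 fusion proteins in cell lysate measuring dimerization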
[3] = molecular target: T1, Small ubiquitin-related modifier 1 (Homo sapiens, UniProt P63165); assay: inhibitors of SUMO1 peptide binding, dose response, biochemical, fluorescence polarization, uHTS hits (AID 624382); type: functional; conditions: read-out: IC50_Mean
[4] = molecular target: T1, Small ubiquitin-related modifier 1; assay: inhibitors of SUMO1 partner interactions, dose response, biochemical, FRET (AID 624383); type: functional; conditions: read-out: IC50_Mean
[5] = molecular target: Arf-GAP with SH3 domain, ANK repeat and PH domain-containing protein 1 (Homo sapiens, UniProt Q9ULH1); type: functional;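 further: biochemical fluorescence polarization dose–response screen measuring inhibition of ASAP1; ASAP1 GAP domain stimulating GTP hydrolysis by truncated human ARF1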
[6] = molecular target: T2, Mitochondrial peptide methionine sulfoxide reductase (Bos taurus, UniProt P54149); type: functional;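 on IC50: absorbance read-out, biochemical high-throughput dose-response screen for MsrA inhibitors, confirmatory; recombinant bovine MsrA coupled to E. coli TrxB with NADPH and selenocystamine; potency is for inhibitors of MsrA activity on DMSO substrate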
[7] = molecular target: 26S proteasome non-ATPase regulatory subunit 14 (Homo sapiens, UniProt O00487); assay: inhibition of proteasome subunit RPN11 – biochemical, fluorescence polarization, uHTS hits, confirmation (AID 602368); type: functional
[8] = molecular target: G-protein coupled receptor 55 (Homo sapiens, UniProt Q9Y2T6); assay: GPR55 antagonists blocking LPI-driven arrestin recruitment, primary screen, imaging, U2OS, beta-arrestin-GFP, LPI agonist (AID 2013); type: functional;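 further: antagonist potency measured as reduced agonist-driven arrestin aggregation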
[9] = molecular target: DNA (cytosine-5)-methyltransferase 1 (Homo sapiens, UniProt P26358); assay: DNMT1 methyltransferase inhibitors, confirmation, biochemical, fluorescent molecular beacon (AID 602386); type: functional
[10] = molecular target: Prothrombin (Bos taurus, UniProt P00735); assay: thrombin inhibition, dose response, biochemical, fluorescence polarization, uHTS hits (AID 602369); type: functional
[11] = molecular target: T3, Carboxy-terminal domain RNA polymerase II polypeptide A small phosphatase 1 (Homo sapiens, UniProt Q9GZU7); assay: inhibitors of CTDSP1, concentration-response testing, biochemical assay, absorbance-based, actives from ultra-high-throughput screening (AID 540297); type: functional
T3 sequence (Q9GZU7 whole entry): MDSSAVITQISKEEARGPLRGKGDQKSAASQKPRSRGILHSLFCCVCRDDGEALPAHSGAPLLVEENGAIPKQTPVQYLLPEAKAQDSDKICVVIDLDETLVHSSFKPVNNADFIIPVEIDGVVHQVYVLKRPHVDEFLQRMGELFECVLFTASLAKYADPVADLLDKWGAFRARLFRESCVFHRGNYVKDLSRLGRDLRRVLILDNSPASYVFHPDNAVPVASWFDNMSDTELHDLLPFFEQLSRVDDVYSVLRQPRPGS

[12] = molecular target: T4, Histone-lysine N-methyltransferase NSD2 (Homo sapiens, UniProt O96028); type: biochemical
T4 sequence (O96028 whole entry): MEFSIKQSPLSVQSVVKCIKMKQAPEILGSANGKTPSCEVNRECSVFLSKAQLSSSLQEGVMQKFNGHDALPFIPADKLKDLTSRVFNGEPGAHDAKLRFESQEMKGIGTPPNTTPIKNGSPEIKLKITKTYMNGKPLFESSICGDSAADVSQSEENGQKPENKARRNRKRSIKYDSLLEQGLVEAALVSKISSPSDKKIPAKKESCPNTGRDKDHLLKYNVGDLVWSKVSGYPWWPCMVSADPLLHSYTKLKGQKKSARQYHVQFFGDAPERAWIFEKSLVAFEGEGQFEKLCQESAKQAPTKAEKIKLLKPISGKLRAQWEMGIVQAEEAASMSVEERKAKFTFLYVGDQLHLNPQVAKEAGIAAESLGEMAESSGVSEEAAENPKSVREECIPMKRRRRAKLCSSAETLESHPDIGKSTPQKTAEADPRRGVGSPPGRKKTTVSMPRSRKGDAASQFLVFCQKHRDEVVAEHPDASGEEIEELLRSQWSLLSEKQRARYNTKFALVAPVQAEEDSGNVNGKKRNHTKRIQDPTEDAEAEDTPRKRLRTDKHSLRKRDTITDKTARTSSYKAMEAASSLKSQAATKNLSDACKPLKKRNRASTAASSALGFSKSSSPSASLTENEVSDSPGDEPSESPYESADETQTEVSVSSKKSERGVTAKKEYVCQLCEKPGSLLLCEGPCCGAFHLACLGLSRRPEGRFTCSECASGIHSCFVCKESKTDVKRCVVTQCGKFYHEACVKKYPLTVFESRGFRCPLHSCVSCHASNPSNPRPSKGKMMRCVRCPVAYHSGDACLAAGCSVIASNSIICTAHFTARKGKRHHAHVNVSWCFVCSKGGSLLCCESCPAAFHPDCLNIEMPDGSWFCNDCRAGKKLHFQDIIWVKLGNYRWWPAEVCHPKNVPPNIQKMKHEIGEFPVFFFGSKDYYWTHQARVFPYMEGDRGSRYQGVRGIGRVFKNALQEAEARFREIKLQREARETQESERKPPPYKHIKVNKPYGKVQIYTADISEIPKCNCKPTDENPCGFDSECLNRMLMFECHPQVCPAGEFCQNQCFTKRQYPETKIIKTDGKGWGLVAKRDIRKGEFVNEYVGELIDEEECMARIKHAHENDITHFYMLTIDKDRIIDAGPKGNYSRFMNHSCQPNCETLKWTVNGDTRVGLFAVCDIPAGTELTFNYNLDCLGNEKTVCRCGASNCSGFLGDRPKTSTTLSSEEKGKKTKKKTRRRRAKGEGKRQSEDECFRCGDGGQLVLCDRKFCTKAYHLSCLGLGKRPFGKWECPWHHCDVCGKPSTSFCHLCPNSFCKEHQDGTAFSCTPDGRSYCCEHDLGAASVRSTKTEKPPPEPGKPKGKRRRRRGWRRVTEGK

[13] = molecular target: 72 kDa type IV collagenase (Homo sapiens, UniProt P08253); assay: Dose Response validation of uHTS RPN11 inhibitor hits using a MMP-2 Fluorescence assay.; type: functional
[14] = molecular target: T2, Mitochondrial peptide methionine sulfoxide reductase; assay: Absorbance-based biochemical high throughput dose response assay for activators of Methionine sulfoxide reductase A (MsrA).; type: functional
[15] = molecular target: Tyrosine-protein phosphatase non-receptor type 11 (Homo sapiens, UniProt Q06124); assay: SHP2 phosphatase inhibition, dose response, selectivity assay for STEP inhibitor project, biochemical (AID 602367); type: functional; conditions: read-out: IC50_Mean
[16] = growth suppression of PTEN-null colon cells, dose response, cell-based, HCT116 PTEN knockout (AID 1047); type: functional;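 further: HCT116 colon tumor cells with PTEN knocked out; cells exposed to compound for 60 hours before readout; potency for loss of cell viability measured by luminescence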
[17] = molecular target: Dual specificity protein phosphatase 3 (Homo sapiens, UniProt P51452); assay: VHR phosphatase inhibition, dose response, selectivity assay for STEP inhibitor project, biochemical (AID 602374); type: functional; conditions: read-out: IC50_Mean
[18] = growth suppression of beta-catenin-knockout colon cells, dose response, cell-based, HCT116, human colon tumor (AID 1045); type: functional;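 further: HCT116 colon tumor cells with beta catenin knocked out; cells exposed to compound for 60 hours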
[19] = molecular target: T5, Tyrosine-protein phosphatase non-receptor type 22 (Homo sapiens, UniProt Q9Y2R2); assay: PTPN22 phosphatase inhibition, dose response, selectivity assay for STEP inhibitor project, biochemical (AID 624241); type: functional
T5 sequence (Q9Y2R2 whole entry): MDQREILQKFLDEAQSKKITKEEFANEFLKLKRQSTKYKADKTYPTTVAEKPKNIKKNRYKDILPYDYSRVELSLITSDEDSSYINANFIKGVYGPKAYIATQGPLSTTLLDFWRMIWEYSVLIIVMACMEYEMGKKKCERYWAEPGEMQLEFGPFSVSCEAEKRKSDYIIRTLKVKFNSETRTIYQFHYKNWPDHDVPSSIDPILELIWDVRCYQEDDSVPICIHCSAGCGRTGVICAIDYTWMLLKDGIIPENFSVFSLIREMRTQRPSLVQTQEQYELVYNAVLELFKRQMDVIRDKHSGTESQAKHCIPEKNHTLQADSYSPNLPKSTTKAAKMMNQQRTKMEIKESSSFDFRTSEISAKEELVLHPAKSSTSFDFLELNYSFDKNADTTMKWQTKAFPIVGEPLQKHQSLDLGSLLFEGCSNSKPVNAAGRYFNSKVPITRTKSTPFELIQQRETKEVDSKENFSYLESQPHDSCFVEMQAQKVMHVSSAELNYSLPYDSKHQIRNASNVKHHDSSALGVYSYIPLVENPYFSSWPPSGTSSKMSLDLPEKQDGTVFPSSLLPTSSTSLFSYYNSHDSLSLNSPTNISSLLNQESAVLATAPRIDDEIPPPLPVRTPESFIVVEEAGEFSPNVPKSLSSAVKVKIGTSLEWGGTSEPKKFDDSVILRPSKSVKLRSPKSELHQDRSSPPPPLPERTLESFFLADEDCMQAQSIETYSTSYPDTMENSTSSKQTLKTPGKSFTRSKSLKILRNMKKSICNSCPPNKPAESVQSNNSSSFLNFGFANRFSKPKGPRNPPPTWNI

[20] = molecular target: Tyrosine-protein phosphatase non-receptor type 5 (Homo sapiens, UniProt P54829); assay: STEP phosphatase inhibitors, confirmation, biochemical, fluorescence intensity, uHTS hits (AID 602372); type: functional; conditions: read-out: IC50_Mean

T2 sequence (P54149 whole entry): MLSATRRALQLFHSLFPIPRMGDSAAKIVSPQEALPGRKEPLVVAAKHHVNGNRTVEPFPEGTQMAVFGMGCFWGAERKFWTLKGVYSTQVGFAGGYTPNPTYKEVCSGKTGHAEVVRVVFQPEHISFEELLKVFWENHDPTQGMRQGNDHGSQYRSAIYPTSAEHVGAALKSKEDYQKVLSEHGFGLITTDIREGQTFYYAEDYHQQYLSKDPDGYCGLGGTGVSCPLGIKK
T1 sequence (P63165 whole entry): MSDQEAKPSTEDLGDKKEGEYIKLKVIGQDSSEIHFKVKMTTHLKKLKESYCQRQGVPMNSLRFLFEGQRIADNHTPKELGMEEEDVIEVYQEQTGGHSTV
Dual specificity protein phosphatase 3, sequence (P51452 whole entry): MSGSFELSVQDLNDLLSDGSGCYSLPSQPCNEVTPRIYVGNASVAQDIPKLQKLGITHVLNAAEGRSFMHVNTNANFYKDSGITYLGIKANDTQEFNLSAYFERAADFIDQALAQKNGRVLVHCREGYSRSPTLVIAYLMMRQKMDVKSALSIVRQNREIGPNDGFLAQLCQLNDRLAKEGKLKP
G-protein coupled receptor 55, sequence (Q9Y2T6 whole entry): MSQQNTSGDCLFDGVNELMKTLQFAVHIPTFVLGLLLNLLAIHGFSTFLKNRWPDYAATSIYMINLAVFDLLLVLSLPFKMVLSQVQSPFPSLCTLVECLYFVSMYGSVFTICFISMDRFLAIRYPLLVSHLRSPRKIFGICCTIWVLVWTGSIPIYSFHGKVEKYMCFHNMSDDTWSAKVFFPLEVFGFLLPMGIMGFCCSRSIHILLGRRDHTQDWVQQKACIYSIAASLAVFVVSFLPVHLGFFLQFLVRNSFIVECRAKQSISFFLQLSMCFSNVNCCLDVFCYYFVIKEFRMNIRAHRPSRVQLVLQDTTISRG
26S proteasome non-ATPase regulatory subunit 14, sequence (O00487 whole entry): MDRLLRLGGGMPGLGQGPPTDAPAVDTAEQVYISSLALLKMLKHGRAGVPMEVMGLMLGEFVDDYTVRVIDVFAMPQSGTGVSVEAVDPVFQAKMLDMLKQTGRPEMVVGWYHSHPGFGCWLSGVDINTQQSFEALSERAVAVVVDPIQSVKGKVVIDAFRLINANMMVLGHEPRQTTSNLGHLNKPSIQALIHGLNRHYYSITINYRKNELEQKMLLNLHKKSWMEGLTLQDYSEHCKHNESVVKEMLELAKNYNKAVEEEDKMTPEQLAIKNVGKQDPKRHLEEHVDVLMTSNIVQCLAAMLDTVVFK
Arf-GAP with SH3 domain, ANK repeat and PH domain-containing protein 1, sequence (Q9ULH1 whole entry, the tested form may be a part): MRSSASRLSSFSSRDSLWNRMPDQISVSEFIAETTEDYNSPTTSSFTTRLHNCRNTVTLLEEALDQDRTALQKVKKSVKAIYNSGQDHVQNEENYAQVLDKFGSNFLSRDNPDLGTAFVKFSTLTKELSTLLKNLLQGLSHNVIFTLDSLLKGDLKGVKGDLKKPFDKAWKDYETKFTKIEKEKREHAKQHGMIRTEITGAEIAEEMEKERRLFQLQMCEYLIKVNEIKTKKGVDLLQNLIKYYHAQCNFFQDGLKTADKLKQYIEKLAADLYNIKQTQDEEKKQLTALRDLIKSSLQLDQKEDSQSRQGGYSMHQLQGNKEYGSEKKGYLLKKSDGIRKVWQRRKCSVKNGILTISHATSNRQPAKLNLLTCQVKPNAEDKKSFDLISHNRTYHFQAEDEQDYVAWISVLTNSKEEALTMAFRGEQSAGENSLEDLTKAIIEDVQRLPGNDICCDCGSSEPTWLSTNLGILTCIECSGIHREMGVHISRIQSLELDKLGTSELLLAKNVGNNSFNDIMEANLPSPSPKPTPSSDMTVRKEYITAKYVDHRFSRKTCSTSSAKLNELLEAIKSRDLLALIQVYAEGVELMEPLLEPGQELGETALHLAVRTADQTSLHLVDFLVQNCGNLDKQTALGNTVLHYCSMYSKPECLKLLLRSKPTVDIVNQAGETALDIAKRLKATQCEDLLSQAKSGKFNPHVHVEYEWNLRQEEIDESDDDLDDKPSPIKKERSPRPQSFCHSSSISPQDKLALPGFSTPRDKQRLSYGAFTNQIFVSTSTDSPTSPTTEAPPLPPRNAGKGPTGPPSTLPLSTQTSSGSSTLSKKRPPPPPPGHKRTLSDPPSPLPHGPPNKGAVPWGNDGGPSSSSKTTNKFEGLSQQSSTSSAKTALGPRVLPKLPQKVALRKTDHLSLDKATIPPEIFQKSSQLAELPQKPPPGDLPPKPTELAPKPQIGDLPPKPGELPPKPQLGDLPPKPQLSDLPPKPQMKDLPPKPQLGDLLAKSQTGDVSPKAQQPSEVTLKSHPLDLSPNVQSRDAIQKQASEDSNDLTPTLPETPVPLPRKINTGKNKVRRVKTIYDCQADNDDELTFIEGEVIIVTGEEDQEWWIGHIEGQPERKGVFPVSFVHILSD
DNA (cytosine-5)-methyltransferase 1, sequence (P26358 whole entry): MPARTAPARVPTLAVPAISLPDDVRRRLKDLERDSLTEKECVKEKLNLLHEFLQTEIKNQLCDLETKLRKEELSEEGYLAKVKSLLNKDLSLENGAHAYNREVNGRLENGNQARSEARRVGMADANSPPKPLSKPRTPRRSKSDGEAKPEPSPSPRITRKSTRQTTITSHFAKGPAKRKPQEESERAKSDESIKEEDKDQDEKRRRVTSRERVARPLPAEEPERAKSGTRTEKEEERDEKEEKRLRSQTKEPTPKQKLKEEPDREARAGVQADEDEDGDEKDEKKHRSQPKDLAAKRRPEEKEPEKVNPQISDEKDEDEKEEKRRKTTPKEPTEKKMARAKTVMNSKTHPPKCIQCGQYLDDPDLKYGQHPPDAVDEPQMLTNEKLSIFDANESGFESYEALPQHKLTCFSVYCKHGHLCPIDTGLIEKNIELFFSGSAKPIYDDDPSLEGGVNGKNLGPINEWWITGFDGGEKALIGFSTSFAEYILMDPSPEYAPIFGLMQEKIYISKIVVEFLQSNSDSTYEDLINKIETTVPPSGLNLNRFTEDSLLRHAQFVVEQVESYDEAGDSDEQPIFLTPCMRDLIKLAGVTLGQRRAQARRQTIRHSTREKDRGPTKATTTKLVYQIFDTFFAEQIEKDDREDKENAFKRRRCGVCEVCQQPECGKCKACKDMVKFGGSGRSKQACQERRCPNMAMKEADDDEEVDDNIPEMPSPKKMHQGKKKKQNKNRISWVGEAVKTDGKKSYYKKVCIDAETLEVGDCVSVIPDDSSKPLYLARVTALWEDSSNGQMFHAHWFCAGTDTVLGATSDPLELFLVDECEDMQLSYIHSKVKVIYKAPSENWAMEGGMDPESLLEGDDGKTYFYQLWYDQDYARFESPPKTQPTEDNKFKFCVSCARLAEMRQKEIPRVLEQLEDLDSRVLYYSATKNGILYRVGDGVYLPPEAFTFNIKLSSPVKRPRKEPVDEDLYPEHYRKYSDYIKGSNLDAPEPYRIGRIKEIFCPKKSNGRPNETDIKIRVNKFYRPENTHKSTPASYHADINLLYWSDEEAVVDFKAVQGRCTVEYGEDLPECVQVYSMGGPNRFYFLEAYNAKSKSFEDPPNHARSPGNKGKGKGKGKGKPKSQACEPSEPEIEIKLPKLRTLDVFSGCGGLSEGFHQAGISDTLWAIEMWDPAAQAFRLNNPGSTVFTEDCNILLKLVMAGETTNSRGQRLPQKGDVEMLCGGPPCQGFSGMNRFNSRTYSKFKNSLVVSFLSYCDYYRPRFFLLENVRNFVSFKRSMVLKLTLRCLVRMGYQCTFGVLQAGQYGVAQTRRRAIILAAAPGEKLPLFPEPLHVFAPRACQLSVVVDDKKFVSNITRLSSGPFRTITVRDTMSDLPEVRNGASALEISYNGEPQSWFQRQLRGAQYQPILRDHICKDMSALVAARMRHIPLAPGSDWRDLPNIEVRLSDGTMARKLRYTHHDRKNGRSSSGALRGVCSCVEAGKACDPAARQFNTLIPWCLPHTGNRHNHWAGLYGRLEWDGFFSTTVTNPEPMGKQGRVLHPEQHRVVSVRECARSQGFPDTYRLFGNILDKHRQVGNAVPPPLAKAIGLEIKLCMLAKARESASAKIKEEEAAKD
Tyrosine-protein phosphatase non-receptor type 11, sequence (Q06124 whole entry): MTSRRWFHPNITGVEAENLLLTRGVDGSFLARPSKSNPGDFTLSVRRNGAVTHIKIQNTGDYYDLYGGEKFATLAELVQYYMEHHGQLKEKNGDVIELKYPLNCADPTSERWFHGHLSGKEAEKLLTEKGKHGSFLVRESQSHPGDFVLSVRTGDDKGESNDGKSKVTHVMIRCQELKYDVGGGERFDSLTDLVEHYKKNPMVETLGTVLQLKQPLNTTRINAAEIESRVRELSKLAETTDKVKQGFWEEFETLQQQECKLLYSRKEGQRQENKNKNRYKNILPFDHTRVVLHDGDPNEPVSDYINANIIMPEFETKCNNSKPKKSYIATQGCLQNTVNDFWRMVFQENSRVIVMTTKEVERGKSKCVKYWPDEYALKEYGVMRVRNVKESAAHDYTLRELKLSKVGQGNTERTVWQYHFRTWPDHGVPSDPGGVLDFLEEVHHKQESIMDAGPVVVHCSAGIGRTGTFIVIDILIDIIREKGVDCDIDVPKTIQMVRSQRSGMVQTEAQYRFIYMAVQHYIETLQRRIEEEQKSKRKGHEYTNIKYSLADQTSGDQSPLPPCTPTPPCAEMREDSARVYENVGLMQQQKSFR
Hepatocyte nuclear factor 4-alpha, sequence (P41235 whole entry, the tested form may be a part): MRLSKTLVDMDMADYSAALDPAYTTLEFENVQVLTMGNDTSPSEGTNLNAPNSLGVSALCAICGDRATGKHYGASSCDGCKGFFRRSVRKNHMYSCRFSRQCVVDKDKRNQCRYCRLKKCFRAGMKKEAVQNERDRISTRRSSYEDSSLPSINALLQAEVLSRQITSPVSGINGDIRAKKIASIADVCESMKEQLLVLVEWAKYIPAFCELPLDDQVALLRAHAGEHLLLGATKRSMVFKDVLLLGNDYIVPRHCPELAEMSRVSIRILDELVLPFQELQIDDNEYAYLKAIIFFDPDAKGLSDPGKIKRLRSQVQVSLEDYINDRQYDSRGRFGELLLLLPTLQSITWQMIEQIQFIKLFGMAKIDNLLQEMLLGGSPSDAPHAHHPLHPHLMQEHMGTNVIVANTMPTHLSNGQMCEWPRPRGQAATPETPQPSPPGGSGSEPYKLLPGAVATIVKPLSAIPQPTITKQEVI

CNC(=O)C[C@@H]1CC[C@@H]2[C@@H](COc3ccc(NC(=O)Nc4ccc(F)c(F)c4)cc3C(=O)N2C)O1
AC50 [1]: 4.95 µM (active)

CCOc1cc(N)c(Cl)cc1C(=O)NCC1CN(Cc2ccc(F)cc2)CCO1 (stereo not given) [MOSAPRIDE CITRATE]
IC50 [2]: 12.7 µM (inactive)

COc1cc(/C=N/NC(=O)c2ccc(O)cc2)ccc1OCC(=O)Nc1cccc([N+](=O)[O-])c1
IC50 [3]: > 66.6 µM (inactive)
IC50 [4]: 3.86 µM (active)
IC50 [5]: 25.3 µM (inactive)

Sc1nnc(C2CCCCC2)n1/N=C/c1ccccc1Br
IC50 [6]: 155 µM (inactive)

COc1ccc(CN2C(=O)NC(=O)/C(=C\c3ccco3)C2=O)cc1
IC50 [7]: 26.5 µM (active)
IC50 [8]: 3.34 µM (active)
IC50 [9]: 12.3 µM (active)
IC50 [10]: 54.1 µM (active)
IC50 [11]: 3.91 µM (active)
AC50 [12]: 12.8 µM (active)
IC50 [13]: 12.7 µM (active)

CO/N=C/c1ccc(N2CCCC2)c([N+](=O)[O-])c1
EC50 [14]: > 104 µM (inactive)

CCOc1ccc(C(=O)Nc2cc(-c3nc4ccccc4[nH]3)ccc2Cl)cc1[N+](=O)[O-]
IC50 [15]: 2.14 µM (active)
EC50 [16]: 8.7 µM (active)
IC50 [17]: 3.11 µM (active)
EC50 [18]: 8.99 µM (active)
IC50 [19]: 29.9 µM (inactive)
IC50 [20]: 6.73 µM (active)
